Data published in US20060281789A1, “Protein kinase inhibitors” (KYOWA HAKKO KOGYO CO., LTD, priority 2003, published 2006).
Counter-ions that a name gives are not always drawn.

Columns and labels:
MV-4-11 = test: Cytostatic activity on human acute myeloid leukemia cell line MV-4-11 (WST-1); format: cell-based; conditions: MV4-11, 3.16 μmol/L, 72 hours, read-out: MV-4-11 (%) cytostatic rate
Description: (§1) The cytostatic rates of a test compound on human acute myeloid leukemia cell lines MV-4-11 and ML-1, and human chronic myeloid leukemia cell line K562 were determined in the following manner.
(§2) Each cell was cultured using Roswell Park Memorial Institute's Medium (RPMI) 1640 (Gibco, Catalog No. 11875-093) containing 10% fetal bovine serum (Gibco, Catalogue No. 10437-028) and penicillin/streptomycin (1:1) (Gibco, Catalogue No. 15140-122). Each 80 μL of the MV-4-11 cell having a concentration of 7.5×10^4 cells/mL (or the ML-1 cell or K562 cell having a concentration of 2.5×10^4 cells/mL) was inoculated to wells of a TC MICROWELL 96U plate (Nalge Nunc International, Catalogue No. 163320) and was cultured in a 5% carbon dioxide gas incubator at 37° C. for 4 hours. As a blank, only RPMI medium (80 μL) was added to a well. Each 20 μL of a solution of the test compound in dimethyl sulfoxide (DMSO) which was prepared to make the final concentration to 3.16 μmol/L or 10 μmol/L, was added to the MV-4-11 cell, ML-1 cell and K562 cell, respectively. Each 20 μL of DMSO was added to the control well and the blank well to a final concentration of 0.1%. After adding the test compound, the cells were incubated in a 5% carbon dioxide gas incubator at 37° C. for 72 hours. After adding 20 μL of WST-1 reagent {4-[3-(4-iodophenyl)-2-(4-nitrophenyl)-2H-5-tetrazolio]-1,3-benzene disulfonate sodium salt) (Roche Diagnostics K.K., Catalogue No. 1644807) diluted to 50% with RPMI medium, the cells were further incubated at 37° C. for 2 hours. Then, the absorbances at 450 nm (reference wavelength: 690 nm) were determined with a microplate spectrophotometer SPECTRA max 340PC (Molecular Devices Corporation). The relative growth (%) of a well to which the test compound had been added was determined while setting the absorbance of a well to which not the test compound but DMSO alone had been added (control) at 100% and that of a well containing RPMI medium alone at 0%. The cytostatic rate (%) of the test compound was determined by subtracting the calculated relative growth from 100.

ML-1 = test: Cytostatic activity on human acute myeloid leukemia cell line ML-1 (WST-1); format: cell-based; conditions: ML1, 3.16 μmol/L, 72 hours, read-out: ML-1 (%) cytostatic rate
Description: as §1, §2

K562 = test: Cytostatic activity on human chronic myeloid leukemia cell line K562 (WST-1); format: cell-based; conditions: 10 μmol/L, 72 hours, read-out: K562 (%) cytostatic rate
Description: as §1, §2

Colo205 = test: Cytostatic activity on human colon cancer cell line Colo205 (WST-1); format: cell-based; conditions: 10 μmol/L, 72 hours
Description: The cytostatic rate of a test compound on the human colon cancer cell line Colo205 was determined in the following manner.
The cell was cultured using Roswell Park Memorial Institute's-Medium (RPMI) 1640 (Gibco, Catalog No. 11875-093) containing 10% fetal bovine serum (Gibco, Catalog-No. 10437-028) and penicillin/streptomycin (1:1) (Gibco, Catalog No. 15140-122). Each 80 μL of the Colo205 having a concentration of 1.25×10^4 cells/mL was inoculated to wells of a TC MICROWELL 96F plate (Nalge Nunc International, Catalog No. 167008) and was cultured in a 5% carbon dioxide gas incubator at 37° C. for 4 hours. As a blank, only RPMI (80 μL) was added to a well. Each 20 μL of a solution of the test compound in DMSO which was prepared to make the final concentration to 10 μmol/L, was added to the Colo205 cell. Each 20 μL of DMSO was added to the control well and the blank well to a final concentration of 0.1%. After adding the test compound, the cell was incubated in a 5% carbon dioxide gas incubator at 37° C. for 72 hours. The cytostatic rate (%) was then determined in the same manner as the method or the leukemia cell lines described above.

human Flt-3 = molecular target: T1, human Flt-3 (Homo sapiens, UniProt P36888); test: Inhibitory activity on Flt-3 (GST-fused kinase, time-resolved fluoroimmunoassay); format: biochemical; conditions: tested compound 10 μmol/L, ATP 10 μmol/L, sixty minutes
T1 construct: fused to the N-terminus of the intracellular domain (583-953 amino acids) thereof; made in house; host or cells: insect cells (baculovirus)
T1 sequence (P36888 583-953): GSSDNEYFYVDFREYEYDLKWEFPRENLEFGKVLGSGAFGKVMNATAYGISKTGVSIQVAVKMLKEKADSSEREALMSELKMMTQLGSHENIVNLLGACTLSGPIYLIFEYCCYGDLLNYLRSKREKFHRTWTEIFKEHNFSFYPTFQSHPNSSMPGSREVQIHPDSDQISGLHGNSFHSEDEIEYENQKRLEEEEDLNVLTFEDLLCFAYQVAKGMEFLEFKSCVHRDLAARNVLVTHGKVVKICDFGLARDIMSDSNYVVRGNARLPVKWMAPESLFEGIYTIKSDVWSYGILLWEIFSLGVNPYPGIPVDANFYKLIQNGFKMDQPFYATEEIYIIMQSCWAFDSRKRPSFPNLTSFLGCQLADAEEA
Description: Flt-3 inhibitory activities were determined in the following manner.
Flt-3 was prepared by allowing baculovirus to infect insect cells, which baculovirus expresses a protein comprising human Flt-3 with […]. […] Separately was prepared a solution containing, at final concentrations, GST-fused Flt-3 (100 μg/L), Tris-Cl (pH 7.5) (20 mmol/L), β-glycerophosphate (5 mmol/L), dithiothreitol (DTT) (1 mmol/L), Na3VO4 (0.1 mmol/L), MgCl2 (10 mmol/L), MnCl2 (10 mmol/L), ATP (10 μmol/L), bovine serum albumin (BSA) (0.1%), DMSO (0.1%), and a tested compound (10 μmol/L). The solution (each 60 μL) was placed into the wells of the plate for the determination of kinase reaction, followed by enzymatic reaction at room temperature for sixty minutes. After reacting, the reaction was stopped by the addition of 50 μL of a 25 mmol/L aqueous solution of ethylenediaminetetraacetic acid. […] The relative activity (%) of a well in which the enzyme and tested compound were added was determined by calculation with the value in a well to which the tested compound was not added being 100% and the value in a well to which the enzyme and the tested compound were not added being 0%. The Flt-3 inhibitory activity (%) of the tested compound was determined by subtracting the relative activity (%) from 100.

inhibition at 10 µM (human Flt-3)	SMILES	inhibition at 3.16 µM (MV-4-11)	inhibition at 3.16 µM (ML-1)	inhibition at 10 µM (K562)	Colo205(%) cytostatic rate (Colo205)
93.8%	COc1cc(/C=C/c2n[nH]c3ccccc23)ccc1OCC(=O)N1CCOCC1 [Compound 40, (E)-N-{4-[2-(1H-indazol-3-yl)vinyl]-2-methoxyphenoxy}acetylmorpholine]	95%	95%	60%	93%
95.2%	C(=C\c1n[nH]c2ccccc12)/c1ccc(N2CCNCC2)cc1.Cl [Compound 53, (E)-3-{2-[4-(piperazin-1-yl)phenyl]vinyl}-1H-indazole hydrochloride]	97%	80%	87%	90%
94.5%	N#Cc1cc(/C=C/c2n[nH]c3ccccc23)ccc1OCCN1CCOCC1 [Compound 47, (E)-3-{2-[3-cyano-4-(2-morpholinoethoxy)phenyl]vinyl}-1H-indazole]	98%	89%	75%	68%
	Nc1cc(/C=C/c2n[nH]c3ccccc23)ccc1N1CCNCC1 [Compound 59, (E)-3-{2-[3-amino-4-(piperazin-1-yl)phenyl]vinyl}-1H-indazole]	98%	86%	84%	89%
	C(=C\c1n[nH]c2ccccc12)/c1ccc(OCCCN2CCCCC2)cc1 [Compound 9, (E)-3-{2-[4-(3-piperidinopropoxy)phenyl]vinyl}-1H-indazole hydrochloride]	97%	92%	97%	
	CC(=O)N1CCN(c2ccc(/C=C/c3n[nH]c4ccccc34)cc2N)CC1 [Compound 58, (E)-3-{2-[4-(4-acetylpiperazin-1-yl)-3-aminophenyl]vinyl}-1H-indazole]	97%	90%	61%	91%
	CN(C)CCCOc1ccc(/C=C/c2n[nH]c3ccccc23)cc1 [Compound 10, (E)-3-{2-[4-(3-dimethylaminopropoxy)phenyl]vinyl}-1H-indazole hydrochloride]	97%	92%	95%	
	COc1ccc(/C=C/c2n[nH]c3ccccc23)cn1 [Compound 22, (E)-3-[2-(6-methoxypyridin-3-yl)vinyl]-1H-indazole]	82%	9.2%	63%	
94%	CC(=O)N1CCN(c2ccc(/C=C/c3n[nH]c4ccccc34)cc2)CC1 [Compound 54, (E)-3-(2-[4-(4-acetylpiperazin-1-yl)phenyl]vinyl}-1H-indazole]	98%	89%	59%	78%
	CN(C)CCOc1cccc(/C=C/c2n[nH]c3ccccc23)c1 [Compound 18, (E)-3-{2-[3-(2-dimethylaminoethoxy)phenyl]vinyl}-1H-indazole hydrochloride]	95%	4.1%	59%	

SMILES	inhibition at 10 µM (human Flt-3)	inhibition at 3.16 µM (MV-4-11)	inhibition at 3.16 µM (ML-1)	inhibition at 10 µM (K562)	Colo205(%) cytostatic rate (Colo205)
C(=C\c1n[nH]c2ccccc12)/c1ccc(OCCN2CCOCC2)cc1 [Compound 5, (E)-3-{2-[4-(2-morpholinoethoxy)phenyl]vinyl}-1H-indazole hydrochloride]	93.3%	91%	16%	81%	90%
